Measurements as given in US12077503B2, “Substituted cyclic amides and their use as herbicides” (FMC CORPORATION, priority 2015, dated 2024).

Experiments:
Type in all cases: in vivo
Kochia (Kochia scoparia) [1] = assay: Test A preemergence; details: Bassia scoparia, pre-emergence, 240 h
How it was run: (§1)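 Ratings of 0 (no effect) to 100 (complete control) come from visual comparison with untreated controls roughly 10 d after treatment. Test chemicals, formulated in a non-phytotoxic solvent mixture with surfactant, were applied either as a preemergence directed soil spray on seeded soil or postemergence to one- to two-leaf plants 2 to 10 cm tall.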

[2] = test system: barnyardgrass (Echinochloa crus-galli); assay: Test A preemergence; details: Echinochloa crus-galli, pre-emergence, 240 h
How it was run: as §1

[3] = test system: pigweed (Amaranthus retroflexus); assay: Test A preemergence; details: Amaranthus retroflexus, pre-emergence, 240 h
[4] = test system: ragweed (common ragweed, Ambrosia elatior); assay: Test A preemergence; details: Ambrosia artemisiifolia, pre-emergence, 240 h
How it was run: as §1

[5] = test system: ryegrass, Italian (Italian ryegrass, Lolium multiflorum); assay: Test A preemergence; details: Lolium multiflorum, pre-emergence, 240 h
How it was run: as §1

[6] = test system: Galium (catchweed bedstraw, Galium aparine); assay: Test A postemergence; details: Galium, post-emergence, 240 h, 125 g ai/ha, postemergence, visual injury rating after approximately 10 d; read-out: Galium plant response rating (0 to 100 scale, 0 no effect, 100 complete control)
How it was run: as §1

Kochia (Kochia scoparia) [7] = assay: Test A postemergence; details: Bassia scoparia, post-emergence, 240 h, 125 g ai/ha, postemergence, visual injury rating after approximately 10 d; read-out: Kochia plant response rating (0 to 100 scale, 0 no effect, 100 complete control)
How it was run: as §1

[8] = test system: barnyardgrass (Echinochloa crus-galli); assay: Test A postemergence; details: Echinochloa crus-galli, post-emergence, 240 h, 125 g ai/ha, postemergence, visual injury rating after approximately 10 d; read-out: Barnyardgrass plant response rating (0 to 100 scale, 0 no effect, 100 complete control)
How it was run: as §1

[9] = test system: blackgrass (Alopecurus myosuroides); assay: Test A postemergence; details: Alopecurus myosuroides, post-emergence, 240 h, 125 g ai/ha, postemergence, visual injury rating after approximately 10 d; read-out: Blackgrass plant response rating (0 to 100 scale, 0 no effect, 100 complete control)
How it was run: as §1

corn (Zea mays) = assay: Test A postemergence; details: Zea mays, post-emergence, 240 h, 125 g ai/ha, postemergence, visual injury rating after approximately 10 d; read-out: Corn plant response rating (0 to 100 scale, 0 no effect, 100 complete control)
How it was run: as §1

[10] = test system: giant foxtail (Setaria faberii); assay: Test A postemergence; details: Setaria faberi, post-emergence, 240 h, 125 g ai/ha, postemergence, visual injury rating after approximately 10 d; read-out: Foxtail, Giant plant response rating (0 to 100 scale, 0 no effect, 100 complete control)
How it was run: as §1

[11] = test system: pigweed (Amaranthus retroflexus); assay: Test A postemergence; details: Amaranthus retroflexus, post-emergence, 240 h, 125 g ai/ha, postemergence, visual injury rating after approximately 10 d; read-out: Pigweed plant response rating (0 to 100 scale, 0 no effect, 100 complete control)
How it was run: as §1

[12] = test system: ragweed (common ragweed, Ambrosia elatior); assay: Test A postemergence; details: Ambrosia artemisiifolia, post-emergence, 240 h, 125 g ai/ha, postemergence, visual injury rating after approximately 10 d; read-out: Ragweed plant response rating (0 to 100 scale, 0 no effect, 100 complete control)
How it was run: as §1

[13] = test system: ryegrass, Italian (Italian ryegrass, Lolium multiflorum); assay: Test A postemergence; details: Lolium multiflorum, post-emergence, 240 h, 125 g ai/ha, postemergence, visual injury rating after approximately 10 d; read-out: Ryegrass, Italian plant response rating (0 to 100 scale, 0 no effect, 100 complete control)
How it was run: as §1

[14] = test system: wheat (Triticum aestivum); assay: Test A postemergence; details: Triticum aestivum, post-emergence, 240 h, 125 g ai/ha, postemergence, visual injury rating after approximately 10 d; read-out: Wheat plant response rating (0 to 100 scale, 0 no effect, 100 complete control)
How it was run: as §1

O=C1NC[C@H](c2cccc(C(F)(F)F)c2)[C@H]1C(=O)Nc1cccc2c1OC(F)(F)O2 [Compound 827]
pest or weed control at 125 g/ha (Kochia (Kochia scoparia) [1]; 125 g ai/ha, preemergence, 0 to 100 scale where 0 is no effect and 100 is complete control, read-out: Kochia plant response rating): 30%
pest or weed control at 500 g/ha (Kochia (Kochia scoparia) [1]; 500 g ai/ha, Preemergence, visual injury vs untreated controls after approximately 10 d, read-out: Kochia plant response rating (0 to 100 scale where 0 is no effect and 100 is complete control)): 60%
pest or weed control at 125 g/ha ([2]; 125 g ai/ha, preemergence, 0 to 100 scale where 0 is no effect and 100 is complete control, read-out: Barnyardgrass plant response rating): 90%
pest or weed control at 500 g/ha ([2]; 500 g ai/ha, Preemergence, visual injury vs untreated controls after approximately 10 d, read-out: Barnyardgrass plant response rating (0 to 100 scale where 0 is no effect and 100 is complete control)): 90%
pest or weed control at 125 g/ha ([3]; 125 g ai/ha, preemergence, 0 to 100 scale where 0 is no effect and 100 is complete control, read-out: Pigweed plant response rating): 20%
pest or weed control at 500 g/ha ([3]; 500 g ai/ha, Preemergence, visual injury vs untreated controls after approximately 10 d, read-out: Pigweed plant response rating (0 to 100 scale where 0 is no effect and 100 is complete control)): 40%
pest or weed control at 125 g/ha ([4]; 125 g ai/ha, preemergence, 0 to 100 scale where 0 is no effect and 100 is complete control, read-out: Ragweed plant response rating): 0%
pest or weed control at 500 g/ha ([4]; 500 g ai/ha, Preemergence, visual injury vs untreated controls after approximately 10 d, read-out: Ragweed plant response rating (0 to 100 scale where 0 is no effect and 100 is complete control)): 20%
pest or weed control at 125 g/ha ([5]; 125 g ai/ha, preemergence, 0 to 100 scale where 0 is no effect and 100 is complete control, read-out: Ryegrass, Italian plant response rating): 30%
pest or weed control at 500 g/ha ([5]; 500 g ai/ha, Preemergence, visual injury vs untreated controls after approximately 10 d, read-out: Ryegrass, Italian plant response rating (0 to 100 scale where 0 is no effect and 100 is complete control)): 70%
pest or weed control at 125 g/ha [6]: 40%
pest or weed control at 125 g/ha (Kochia (Kochia scoparia) [7]): 0%
pest or weed control at 125 g/ha [8]: 70%
pest or weed control at 125 g/ha [9]: 40%
plant injury at 125 g/ha (corn (Zea mays)): 20%
pest or weed control at 125 g/ha [10]: 80%
pest or weed control at 125 g/ha [11]: 0%
pest or weed control at 125 g/ha [12]: 0%
pest or weed control at 125 g/ha [13]: 0%
plant injury at 125 g/ha [14]: 20%
